Data from US6908905B2, “N-substituted pyrazole-O-glycoside derivatives and therapeutic agent for diabetes containing the same” (Ajinomoto Co., Inc., priority 2001, dated 2005).

Tests used:
[1] = test system: male Wistar rats; assay: Evaluation of effect on urinary excretion of sugar in rats (Example 8); type: in vivo; settings: rat, oral, 24 hours
Description: Five-week-old male Wistar rats (purchased from Charles River Japan, Inc.) were housed in metabolic cages for about one week prior to the experiment. A test compound was suspended in olive oil, so that solutions of the compound with concentrations of […] were prepared to have a dose of 5 ml/kg body weight of the rat. After the rats were not fed for 4 hours, the test compound was orally administered to the rats at a dosage of 10, 30 and 100 mg/kg at 11 a.m. Urine of the rat was collected for a given period of time from the time immediately after the administration to 24 hours after the administration, and the urine volume was measured. Subsequently, the glucose concentration in urine was determined by the glucose oxidase method and the daily amount of glucose excreted in urine per individual was calculated.
As the positive control compound, 3-(benzo[b]furan-5-yl)-2′,6′-dihydroxy-4′-methylpropiophenone 2′-O-(6-O-methoxycarbonyl-β-D-glucopyranoside) was used.

[2] = test system: rat; settings: oral administration, increase of sugar excreted in urine, decrease of blood sugar; cited from earlier work

For COC(=O)OC[C@H]1O[C@@H](Oc2cc(C)cc(O)c2C(=O)CCc2ccc3occc3c2)[C@H](O)[C@@H](O)[C@@H]1O [Positive Control Compound, 3-(benzo[b]furan-5-yl)-2′,6′-dihydroxy-4′-methylpropiophenone 2′-O-(6-O-methoxycarbonyl-β-D-glucopyranoside)], the “The amount of glucose excreted in urine” value ([1]; 10 mg/kg) was 2 mg, the “The amount of glucose excreted in urine” value ([1]; 30 mg/kg) was 78 mg and the “The amount of glucose excreted in urine” value ([1]; 100 mg/kg) was 274 mg. The “dose needed to exhibit the efficacy” value [2] was 100 mg/kg.
